# Reference: article PMC4815073, “Targeting of tubulin polymerization and induction of mitotic blockage by Methyl 2-(5-fluoro-2-hydroxyphenyl)-1H-benzo[d]imidazole-5-carboxylate (MBIC) in human cervical cancer HeLa cell” (Journal of Experimental & Clinical Cancer Research : CR, 2016)
# Columns and labels:
# [1] = test system: Bcl-2, Bax, cleaved caspase-3/7/9, cleaved PARP; experiment: Western blot, mitochondrial-dependent apoptotic proteins in HeLa cells; assay type: cell-based, human; conditions: HeLa, 0.21, 0.42 and 1 μM, 24 h
# Experimental: (§1) Western blot analysis was used to investigate protein expression levels. It was adopted by Suresh Kumar et al.. Briefly, 1 × 10^5 cells/flask was seeded and treated with MBIC in a dose-dependent manner for 24 h. Cells treated with colchicine and nocodazole served as positive controls. Cells were collected and lysed in RIPA buffer supplemented with a 10 μl protease inhibitor cocktail, sodium orthovanadate, and PMSF (Santa Cruz, USA). The lysate was stored at −80 °C until further use. A 40 μg of sample protein was resolved on 10 % SDS-PAGE and transferred to a polyvinylidene difluoride (PVDF) membrane (Merck Millipore, USA). The membrane was blocked in 5 % BSA for 1 h at room temperature following an overnight incubation at 4 °C with the following primary antibodies: Anti-Cyclin B1, anti-CDK1, anti-BubR1, anti-Aurora B, anti-cleaved PARP, anti-cleaved caspase-3/7/9, anti-Bcl-2 and anti-Bax (1:1000) (Cell Signaling Technology (CST), USA), mouse anti β-actin (1:40000) (Sigma-Aldrich, USA) antibodies.
# (§2) Membranes were washed with 1X TBS-T prior to incubating with HRP-conjugated goat anti-mouse or anti-rabbit secondary antibodies for 2 h at room temperature. Membranes were washed 3 times with 1X TBS-T to remove excess antibodies before the proteins-antibody complex was detected with Amersham ECL prime western blotting detection reagent (GE Healthcare, USA). Western blot images were quantified and processed by ImageJ software (NIH, USA).
# [2] = test system: HeLa cells expressing EGFP-α-tubulin, EGFP-CENP-A and histone H2B-mCherry; experiment: Live-cell imaging of mitotic spindle; assay type: cell-based, human; conditions: MBIC 10 μM, nocodazole 2 μM; imaged at 15 min intervals
# Experimental: HeLa cells expressing EGFP-α-tubulin, EGFP-CENP-A and histone H2B-mCherry were grown in glass chambers (Thermo Scientific, USA). Thirty minutes before imaging, the medium was changed to pre-warmed Leibovitz’s L-15 medium (Life Technologies) supplemented with 20 % fetal bovine serum and 20 mM HEPES, pH 7.0. Recordings were made in a temperature-controlled incubator at 37 °C. Images were collected with an Olympus IX-71 inverted microscope (Olympus) controlled by DeltaVision softWoRx (Applied Precision) using a 20x 0.75 NA UPlan SApochromat objective lens (Olympus). Z-series of six sections in 3 μm increments were captured every 15 min. Image stacks were projected.
# HeLa cells = experiment: Cell cycle analysis (PI, flow cytometry); assay type: cell-based, human; conditions: 24 h
# Experimental: Cell cycle analysis was performed using propidium iodide (PI). Briefly, cells were seeded in a 25 cm^2 flask, then 60 % confluent cells were treated with MBIC for 24 and 48 h. Following incubation, the cells were harvested and spun down for 5 min at 2000 rpm. The supernatant was removed and cells were then fixed in 1 ml of ice-cold 70 % ethanol overnight at -80 °C. Fixed cells were washed with 1 ml 1X PBS and stained in 500 μl of PI containing 5 μg/ml DNase-free RNase for 30 min at room temperature in total darkness. DNA content of the cell was analyzed by flow cytometry. The percentage of G0-G1, S and G2-M cells were then calculated using Fluorescence-activated cell sorting (FACS) software (BD Biosciences).
# WRL-68 cells = experiment: MTT cytotoxicity assay, WRL-68 normal liver cells; assay type: cell-based, human; conditions: Homo sapiens
# Source text: The human cervical cancer cell-line, HeLa (CCL-2.2; ATCC, Manassas, VA), HCT-116 (CCL-247; ATCC, Manassas, VA), A549 (CCL-185; ATCC, Manassas, VA), HepG-2 (HB-8065; ATCC, Manassas, VA) and WRL-68 (CL-48; ATCC, Manassas, VA), were obtained from American Type Culture Collection (ATCC). HeLa, A549, HepG2 and WRL68 cells were maintained in Dulbecco’s Modified Eagle Medium (DMEM, Life Technologies, Inc, Rockville, MD). HCT-116 was obtained in McCoy’s 5a Medium Modified (Life Technologies, Inc, Rockville, MD) supplemented with 10 % fetal bovine serum and 1 % penicillin/streptomycin. Cells were incubated at 37 °C in a humidified cell culture 5 % CO2 incubator. Cells were passaged until reaching 70-80-% confluency for experimental purposes.
# Cytotoxicity of MBIC was estimated by MTT assay. Briefly, 1 × 10^4 cells/well were seeded in a 96-well plate and incubated at 37 °C in 5 % CO2. After 24 h, cells were treated with different concentrations (0.02, 0.04, 0.1, 0.2, 0.4, 0.8, 1.5, 3, 6, 12, 25, 50 μM) of MBIC. 0.01 % DMSO was used as vehicle control. Cells were incubated for 24 and 48 h at 37 °C. Subsequently, 50 μl/well of 3-(4,5-dimethylthiazol-2-yl)-2,5-diphenyltetrazolium bromide (MTT, 2 mg/ml) was added and incubated for 2 h. After the incubation, the media was discarded and 100 μl DMSO was replaced into each well to dissolve the formazan crystal. The colorimetric assay was quantified at 570 nm wavelength using Chameleon V microplate reader (Hidex, Turku, Finland). The anti-proliferation activity of MBIC was expressed as an IC50 value. The percentage of cell viability was calculated as described previously.
# tubulin = biological target: T1, tubulin (Sus scrofa, UniProt P02550+P02554); experiment: Tubulin polymerization assay; assay type: biochemical; conditions: 10 μM drug, 3 mg/ml tubulin, 37 °C, 340 nm; untreated 12 mOD/min
# T1 construct: purchased Cytoskeleton BK011P
# T1 sequence (P02550 whole entry): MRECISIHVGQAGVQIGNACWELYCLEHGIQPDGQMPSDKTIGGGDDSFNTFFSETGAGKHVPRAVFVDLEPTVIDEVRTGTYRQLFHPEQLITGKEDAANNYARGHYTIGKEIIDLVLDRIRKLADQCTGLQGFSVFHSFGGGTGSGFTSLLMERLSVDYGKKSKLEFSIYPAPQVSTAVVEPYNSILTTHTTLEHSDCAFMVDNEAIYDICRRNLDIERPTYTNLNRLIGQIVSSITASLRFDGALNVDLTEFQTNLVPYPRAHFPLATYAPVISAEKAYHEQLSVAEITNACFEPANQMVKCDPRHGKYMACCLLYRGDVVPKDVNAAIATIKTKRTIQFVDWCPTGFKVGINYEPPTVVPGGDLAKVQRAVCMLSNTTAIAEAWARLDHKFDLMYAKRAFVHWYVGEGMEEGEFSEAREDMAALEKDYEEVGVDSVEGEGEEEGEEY
# T1 sequence (P02554 whole entry): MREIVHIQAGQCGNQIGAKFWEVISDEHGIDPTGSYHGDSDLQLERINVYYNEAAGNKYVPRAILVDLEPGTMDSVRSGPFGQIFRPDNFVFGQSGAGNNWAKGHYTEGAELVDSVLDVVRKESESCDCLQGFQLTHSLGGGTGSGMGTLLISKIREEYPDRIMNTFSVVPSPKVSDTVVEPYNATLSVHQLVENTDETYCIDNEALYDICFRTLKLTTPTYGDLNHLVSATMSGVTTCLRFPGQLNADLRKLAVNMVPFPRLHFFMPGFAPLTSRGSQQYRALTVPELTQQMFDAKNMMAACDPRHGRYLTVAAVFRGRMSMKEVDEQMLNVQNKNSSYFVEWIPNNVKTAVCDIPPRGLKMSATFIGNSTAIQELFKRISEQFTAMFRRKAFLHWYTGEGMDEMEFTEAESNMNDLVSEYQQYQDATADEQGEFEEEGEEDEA
# Experimental: To investigate the effect of MBIC on tubulin polymerization, a fluorescence-based tubulin polymerization assay kit (Cytoskeleton-Cat. # BK011P) was used according to the manufacturer’s protocol. Briefly, 200 μl of pure tubulin protein was re-suspended in 420 μl of ice cold Tubulin Polymerization Buffer (TPB) to give a final concentration of 3 mg/ml tubulin, supplemented with 80 mM PIPES, 2 mM MgCl2, 0.5 mM EGTA, 1 mM GTP, 20 % (v/v) glycerol. 100 μl of tubulin reaction mixture were added to each well in a 96-well plate containing the selected concentration of MBIC (10 μM). […] Samples were mixed well and the tubulin assembly was monitored by an increase in fluorescence emission at 340 nm in kinetic mode for 120 min at 37 °C using a plate reader (Infinite® 200 PRO—Tecan plate reader, USA).
# [3] = test system: Cyclin B1, CDK1, BubR1, Aurora B; experiment: Western blot, cell-cycle related proteins in HeLa cells; assay type: cell-based, human; conditions: HeLa, 0.21, 0.42 and 1 μM, 24 h
# Experimental: as §1, §2
# [4] = test system: two breast cancer cell lines; design: method as in earlier work; conditions: cited from earlier work
structure (smiles),measurement,setting,value
"COC(=O)c1ccc2[nH]c(-c3cc(F)ccc3O)nc2c1 [MBIC, Methyl 2-(5-fluoro-2-hydroxyphenyl)-1H-benzo[d]imidazole-5-carboxylate]",Bax protein level (Western blot),[1],up-regulation
same,Bcl-2 protein level (Western blot),[1],down-regulation
same,cleaved (activated) caspase-3/7/9 level (Western blot),[1],increased
same,cleaved PARP level (Western blot),[1],increased level
same,mitotic spindle formation in live-cell imaging,[2],did not form the spindle
same,G2-M cell population,HeLa cells; 0.21 μM,26.7 ± 6.3%
same,G2-M cell population,HeLa cells; 1 μM,42.8 ± 6.4%
same,IC50,"WRL-68 cells; WRL68, 24 hours",10.1 ± 1.2 µM
same,IC50,"WRL-68 cells; WRL68, 48 hours",7.16 ± 0.9 µM
same,Tubulin polymerization maximal velocity (Vmax),tubulin,2.45 mOD/min
same,Aurora B protein level (Western blot),[3],down-regulated
same,BubR1 protein level (Western blot),[3],up-regulated
same,CDK1 protein level (Western blot),[3],up-regulation
same,Cyclin B1 protein level (Western blot),[3],up-regulation
same,cytotoxic effect compared to cisplatin,[4],potent cytotoxic effect
